Measurements as given in the supplement of paper PMC10307832.

Tests used:
Assay in all cases: relative viability (nuclei count vs DMSO), 5 days (fraction); higher = more cells survive
[1] = compound: CC1=C(C(=O)N2C=CSC2=N1)CCN3CCC(=C(C4=CC=CC=C4)C5=CC=C(C=C5)F)CC3 + O=C(c1cc(Cc2n[nH]c(=O)c3ccccc23)ccc1F)N1CCN(C(=O)C2CC2)CC1 [Olaparib] (partner 8 µM)
Outline: (§1)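 Each reported value is a median over duplicate plates. It expresses relative viability: treated-well nuclei count divided by vehicle-well nuclei count. Lung cancer cell lines in 1536-well plates were dosed by pin tool a day after seeding, alone with one drug or with a fixed anchor-drug dose plus five library-drug doses (not always all listed) in √10 steps, and nuclei were counted after 5 days.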

[2] = compound: CC1=C(C(=O)N2C=CSC2=N1)CCN3CCC(=C(C4=CC=CC=C4)C5=CC=C(C=C5)F)CC3 + Nc1nc2[nH]cc(CCc3ccc(C(=O)N[C@@H](CCC(=O)O)C(=O)O)cc3)c2c(=O)[nH]1 [Pemetrexed] (partner 0.2 µM)
Outline: as §1

[3] = compound: CC1=C(C(=O)N2C=CSC2=N1)CCN3CCC(=C(C4=CC=CC=C4)C5=CC=C(C=C5)F)CC3 + Cc1nc(NC(=O)N2CCC[C@H]2C(N)=O)sc1-c1ccnc(C(C)(C)C(F)(F)F)c1 [Alpelisib] (partner 2 µM)
Outline: as §1

[4] = compound: CC1=C(C(=O)N2C=CSC2=N1)CCN3CCC(=C(C4=CC=CC=C4)C5=CC=C(C=C5)F)CC3 + COc1cc2c(Oc3ccc(NC(=O)C4(C(=O)Nc5ccc(F)cc5)CC4)cc3F)ccnc2cc1OCCCN1CCOCC1 [Foretinib] (partner 0.25 µM)
Outline: as §1

Cell Line	relative viability ([1]; first compound 0.08 µM)	relative viability ([1]; first compound 0.253 µM)	relative viability ([1]; first compound 0.8 µM)	relative viability ([1]; first compound 2.53 µM)	relative viability ([1]; first compound 8 µM)	relative viability ([2]; first compound 0.08 µM)	relative viability ([2]; first compound 0.253 µM)	relative viability ([2]; first compound 0.8 µM)	relative viability ([2]; first compound 2.53 µM)	relative viability ([2]; first compound 8 µM)	relative viability ([3]; first compound 0.08 µM)	relative viability ([3]; first compound 0.253 µM)	relative viability ([3]; first compound 0.8 µM)	relative viability ([3]; first compound 2.53 µM)	relative viability ([3]; first compound 8 µM)	relative viability ([4]; first compound 0.08 µM)	relative viability ([4]; first compound 0.253 µM)	relative viability ([4]; first compound 0.8 µM)	relative viability ([4]; first compound 2.53 µM)	relative viability ([4]; first compound 8 µM)
HCC-15	0.777	0.782	0.716	0.736	0.643	0.216	0.207	0.225	0.231	0.227	0.875	0.958	0.972	1.04	0.69	1.06	0.995	1.16	1.07	0.774
HARA	0.761	0.779	0.821	0.755	0.774	0.253	0.252	0.253	0.252	0.228	0.932	0.668	1.05	0.77	0.623	1.19	0.98	0.956	0.942	0.649
LCLC-97TM1	0.414	0.342	0.425	0.452	0.344	0.196	0.19	0.173	0.198	0.196	0.184	0.265	0.226	0.304	0.148	1.01	1.01	1.02	0.92	0.958
NCI-H1793	0.536	0.807	0.937	1.08	0.521	0.72	0.715	0.796	1.12	0.794	0.642	0.654	0.663	0.886	0.553	0.601	0.866	0.795	0.624	0.44
EMC-BAC-2	0.46	0.468	0.468	0.522	0.46	0.379	0.482	0.49	0.461	0.386	0.639	0.673	0.806	0.824	0.588	0.945	0.982	0.981	1.12	0.972
NCI-H520	0.358	0.342	0.341	0.31	0.306	0.726	0.566	0.691	0.778	0.477	0.906	0.594	0.777	1.01	0.794	0.778	0.846	0.924	0.873	0.641
H3255	0.503	0.63	0.548	0.6	0.504	0.554	0.532	0.552	0.565	0.552	0.52	0.623	0.727	0.712	0.587	0.818	0.891	0.734	0.886	0.707
NCI-H1355	0.749	0.815	0.793	0.732	0.529	1.09	1.04	1.02	1.1	0.97	0.79	0.948	0.854	0.899	0.623	1.09	0.94	1.08	0.893	0.661
NCI-H1563	–	–	–	–	–	0.971	0.766	0.744	0.833	0.653	0.82	0.909	0.879	0.885	0.779	0.943	0.87	0.907	0.946	0.769
NCI-H1395	0.424	0.43	0.443	0.406	0.434	0.797	0.813	0.72	0.885	0.806	1.09	1.33	1.05	0.958	1.11	1.07	1.08	0.972	0.97	1.06
PC-14	0.209	0.223	0.27	0.251	0.253	0.153	0.138	0.133	0.153	0.137	0.738	1.04	0.955	0.979	0.624	0.783	0.999	1	0.828	0.783
201T	0.941	0.791	0.824	0.92	0.884	0.304	0.335	0.335	0.342	0.24	1.02	1.04	1.08	1.07	0.852	1.1	1.26	1.16	1.25	0.864
NCI-H1944	0.422	0.446	0.38	0.383	0.359	0.626	0.663	0.596	0.591	0.499	0.917	0.815	0.842	0.865	0.777	0.8	1.12	0.891	0.862	0.539
NCI-H647	0.489	0.518	0.793	0.481	0.358	0.185	0.149	0.185	0.166	0.184	1.71	1.24	0.993	1.06	0.793	1.03	1.23	1.24	1.2	0.65
NCI-H1975	0.674	0.714	0.899	0.852	0.433	0.292	0.265	0.312	0.291	0.236	0.674	0.616	0.656	0.667	0.451	1.04	0.664	0.965	1.21	0.591
NCI-H2009	0.716	0.706	0.654	0.721	0.581	1.04	1.1	1.04	1.12	0.938	1.26	1.16	1.2	1.19	1.08	1.33	1.24	1.18	1.26	1.13
NCI-H3122	0.458	0.627	0.595	0.628	0.371	0.192	0.188	0.201	0.214	0.163	0.794	0.701	0.781	0.915	0.752	1.01	1.1	0.931	0.991	0.91
NCI-H460	0.441	0.361	0.423	0.409	0.343	0.0657	0.059	0.0626	0.0637	0.0907	0.54	0.588	0.366	0.621	0.221	0.782	0.796	1.16	1.13	0.232

Cell Line	relative viability ([1]; first compound 0.08 µM)	relative viability ([1]; first compound 0.253 µM)	relative viability ([1]; first compound 0.8 µM)	relative viability ([1]; first compound 2.53 µM)	relative viability ([1]; first compound 8 µM)	relative viability ([2]; first compound 0.08 µM)	relative viability ([2]; first compound 0.253 µM)	relative viability ([2]; first compound 0.8 µM)	relative viability ([2]; first compound 2.53 µM)	relative viability ([2]; first compound 8 µM)	relative viability ([3]; first compound 0.08 µM)	relative viability ([3]; first compound 0.253 µM)	relative viability ([3]; first compound 0.8 µM)	relative viability ([3]; first compound 2.53 µM)	relative viability ([3]; first compound 8 µM)	relative viability ([4]; first compound 0.08 µM)	relative viability ([4]; first compound 0.253 µM)	relative viability ([4]; first compound 0.8 µM)	relative viability ([4]; first compound 2.53 µM)	relative viability ([4]; first compound 8 µM)
CAL-12T	0.724	0.718	0.79	0.763	0.6	1.31	1.21	1.32	1.57	0.765	0.811	1.34	1.45	1.49	0.589	1.17	1.04	1.29	1.23	0.691
SW 1573	0.502	0.323	0.465	0.625	0.357	0.998	0.854	0.786	0.933	0.578	0.829	0.829	0.739	0.657	0.469	1.07	0.829	0.814	0.947	0.72
PC-3 [JPC-3]	1.04	–	1.21	1.31	1.05	1.16	–	0.995	1.01	1.02	0.959	1.1	1.07	1.08	0.899	1.01	0.885	1.05	1.17	0.93
EKVX	0.83	0.868	0.922	0.87	0.729	0.366	0.382	0.436	0.432	0.35	0.719	0.868	1.05	1.14	0.652	0.671	1.04	0.815	0.855	0.677
UMC-11	0.44	–	1.05	0.307	0.342	0.914	–	0.8	0.945	0.632	1.1	0.765	0.977	1.29	0.732	0.948	1.07	1.08	1.18	0.692
ChaGo-K-1	0.451	0.415	0.411	0.458	0.416	0.277	0.27	0.259	0.267	0.236	–	–	–	–	–	0.884	1.04	1.04	0.942	0.548
NCI-H1703	0.385	0.334	0.427	0.577	0.432	–	–	–	–	–	0.372	0.316	0.278	0.463	0.306	0.4	0.415	0.321	0.363	0.319
NCI-H1648	1.14	0.981	1.28	0.787	0.359	0.714	0.657	0.749	0.712	0.423	–	–	–	–	–	–	–	–	–	–
Calu-6	0.475	0.602	0.642	0.573	0.462	–	–	–	–	–	1.02	1.06	0.91	0.997	0.807	0.93	0.93	0.863	0.898	0.707
SW 900	0.896	0.878	0.841	0.848	0.706	0.436	0.532	0.484	0.5	0.281	–	–	–	–	–	0.833	0.935	0.951	0.988	0.566
NCI-H1650	0.782	0.838	0.862	0.819	0.605	0.335	0.348	0.352	0.461	0.337	–	–	–	–	–	1.09	1.12	1.15	1.21	0.65
HCC-44	1.01	1.08	1.03	1.13	0.643	0.729	0.664	0.612	0.644	0.554	0.906	0.736	0.863	0.73	0.805	–	–	–	–	–
NCI-H727	0.86	0.734	0.667	0.689	0.599	–	–	–	–	–	0.507	0.509	0.493	0.738	0.425	0.846	1.01	0.89	0.921	0.624
ABC-1	0.836	–	0.99	1.01	0.536	–	–	–	–	–	0.989	0.935	1.08	1.09	0.605	1.03	1.18	0.958	0.869	0.635
NCI-H522	0.622	0.732	0.647	0.664	0.513	0.958	0.997	0.964	0.914	0.764	–	–	–	–	–	–	–	–	–	–
NCI-H1299	1.04	1.01	0.957	0.977	0.803	–	–	–	–	–	0.997	1.09	1.08	1.03	0.54	1.19	1.14	1.13	1.14	1.02
NCI-H1792	0.318	0.357	0.631	0.603	0.348	0.523	0.543	0.606	0.626	0.293	0.679	0.6	0.722	0.611	0.545	–	–	–	–	–
IA-LM	0.93	0.926	0.848	0.709	0.687	–	–	–	–	–	0.554	0.576	0.845	0.988	0.465	1.1	1.06	1.24	1.22	0.691
